Values after ≈ are worked out from the molar mass of the structure shown. Where two headings read alike, the source gives them in different places.
Experiments:
[1] = target: M. tuberculosis Dxr (Mycobacterium tuberculosis, UniProt P9WNS1); experiment: biochemical
[2] = system: Mtb H37Rv (ATCC 27294); experiment: microbe, parasite or virus in culture; type: cell-based, Mycobacterium tuberculosis; conditions: for MIC: Mycobacterium tuberculosis
[3] = system: Acinetobacter; experiment: microbe, parasite or virus in culture; type: cell-based
[4] = system: E. coli k12; experiment: microbe, parasite or virus in culture; type: cell-based
[5] = system: E. coli tolc; experiment: microbe, parasite or virus in culture; type: cell-based
[6] = system: B. anthracis; experiment: microbe, parasite or virus in culture; type: cell-based, Bacillus anthracis
[7] = system: E. faecalis; experiment: microbe, parasite or virus in culture; type: cell-based
[8] = system: S. aureus (MSSA); experiment: microbe, parasite or virus in culture; type: cell-based
[9] = system: MRSA NRS 70; experiment: microbe, parasite or virus in culture; type: cell-based, S. aureus
[10] = read-out: Mtb MIC (ug/mL) (7H9)
[11] = read-out: Mtb MIC (ug/mL) (GAST)

Sequence of M. tuberculosis Dxr (P9WNS1 whole entry, looked up): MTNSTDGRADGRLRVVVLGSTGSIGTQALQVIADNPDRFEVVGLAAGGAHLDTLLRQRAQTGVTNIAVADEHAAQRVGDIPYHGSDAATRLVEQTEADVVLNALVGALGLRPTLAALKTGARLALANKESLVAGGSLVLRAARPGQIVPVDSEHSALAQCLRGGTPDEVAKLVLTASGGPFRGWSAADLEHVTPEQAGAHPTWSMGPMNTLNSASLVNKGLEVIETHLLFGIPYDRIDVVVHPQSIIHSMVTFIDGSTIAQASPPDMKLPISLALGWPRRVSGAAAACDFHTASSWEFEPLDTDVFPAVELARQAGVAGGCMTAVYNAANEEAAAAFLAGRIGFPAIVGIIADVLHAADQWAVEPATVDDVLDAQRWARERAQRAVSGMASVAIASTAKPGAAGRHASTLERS

## CC(=O)N(CCCP(=O)(O)O)OCCc1ccccc1 [Compound 3, Sodium hydrogen 3-(N-(phenethyloxy)acetamido)propylphosphonate]
[1]; IC50 (μM)
  IC50: 96.4 µM

## CC(=O)N(CCCP(=O)(O)O)OCCCc1ccccc1 [Compound 4, Sodium hydrogen 3-(N-(3-phenylpropoxy)acetamido)propylphosphonate]
[1]; read-out: % Remaining Enzyme Activity at 100 μg/mL
  remaining activity at 100 µg/mL: 100%

## CC(=O)N(CCCP(=O)(O)O)OCc1ccc(C(C)C)cc1 [Compound 5, Sodium hydrogen 3-(N-(4-isopropylbenzyloxy)acetamido)propylphosphonate]
[1]; IC50 (μM)
  IC50: 50.6 µM

## CCOP(=O)(CCN(O)C=O)OCC [Compound 5b]
[2]
  MIC 7H9: >500 µg/mL
  MIC GAST/Fe: >500 µg/mL

## CCOP(=O)(CCCN(O)C=O)OCC [Compound 5c]
[2]
  MIC 7H9: 250 µg/mL (≈ 1050 µM)

## CCOP(=O)(CCN(O)C(C)=O)OCC [Compound 5f]
[2]
  MIC 7H9: >500 µg/mL
  MIC GAST/Fe: >500 µg/mL

## CC(=O)N(CCCP(=O)(O)O)OCC1CCCCC1 [Compound 6, Sodium hydrogen 3-(N-(cyclohexylmethoxy)acetamido)propylphosphonate]
[1]; IC50 (μM)
  IC50: 198 µM

## O=C(Cc1ccccc1)N(O)CCCP(=O)(O)O [Compound 7, Sodium hydrogen 3-(N-hydroxy-2-phenylacetamido)propylphosphonate]
[1]; IC50 (μM)
  IC50: 7.5 µM

## O=C(CCCc1ccccc1)N(O)CCCP(=O)(O)O [Compound 8, Sodium hydrogen 3-(N-hydroxy-4-phenylbutanamido)propylphosphonate]
[1]; IC50 (μM)
  IC50: 3.1 µM

## O=C(C1CCCCC1)N(O)CCCP(=O)(O)O [Compound 9, Sodium hydrogen 3-(N-hydroxycyclohexanecarboxamido)propylphosphonate]
[1]; IC50 (μM)
  IC50: 57.8 µM

## CCOP(=O)(CCCN(O)C(=O)c1ccccc1)OCC [Compound 9a]
[2]; read-out: MIC 7H9 (μg/mL)
  MIC: > 500 µg/mL
[2]; read-out: MIC GAST/Fe (μg/mL)
  MIC: 31.2 µg/mL (≈ 99.1 µM)

## CCOP(=O)(CCCN(O)C=O)OCC [Compound 10, Diethyl fosmidomycin]
[3]
  MIC Acinetobacter: >200 µg/mL
[4]
  MIC E. coli k12: >200 µg/mL
[5]
  MIC E. coli tolc: >200 µg/mL
[6]
  MIC B. anthracis: >200 µg/mL
[7]
  MIC E. faecalis: >200 µg/mL
[8]
  MIC S. aureus (MSSA): >200 µg/mL
[9]
  MIC S. aureus (MRSA): >200 µg/mL
[2]
  MIC M. tuberculosis (H37Rv): 400 µg/mL (≈ 1670 µM)

## CCCCCCOP(=O)(CCCN(O)C(C)=O)OCCCCCC [Compound 21]
[2]
  MIC M. tuberculosis (H37Rv): 100 µg/mL (≈ 274 µM)

## CCOC(=O)OC(C)OP(=O)(CCCN(O)C(C)=O)OC(C)OC(=O)OCC (stereo not shown) [Compound 22]
[3]
  MIC Acinetobacter: >200 µg/mL
[4]
  MIC E. coli k12: >200 µg/mL
[5]
  MIC E. coli tolc: 200 µg/mL (≈ 466 µM)
[6]
  MIC B. anthracis: >200 µg/mL
[7]
  MIC E. faecalis: >200 µg/mL
[8]
  MIC S. aureus (MSSA): >200 µg/mL
[9]
  MIC S. aureus (MRSA): >200 µg/mL
[2]
  MIC M. tuberculosis (H37Rv): 400 µg/mL (≈ 932 µM)

## CCOP(=O)(CCCN(O)C(=O)C1CCCCC1)OCC [ERJ 112]
[2]; [10]
  MIC: > 200 µg/mL
[2]; [11]
  MIC: 100 µg/mL (≈ 311 µM)

## O=C(C1CCCCC1)N(O)CCCP(=O)([O-])O.[Na+] [ERJ 116]
[2]; [10]
  MIC: > 200 µg/mL
[2]; [11]
  MIC: > 200 µg/mL
[1]; Mtb Dxr IC50 (ug/mL)
  IC50: 57.8 µM

## CCOP(=O)(CCCN(O)C(=O)C1CC1)OCC [ERJ 119]
[2]
  Mtb MIC (ug/mL) (7H9): >200 (7H9) >200 (GAST) ug/mL
  Mtb MIC (ug/mL) (GAST): >200 (7H9) >200 (GAST) ug/mL

## O=C(C1CC1)N(O)CCCP(=O)([O-])O.[Na+] [ERJ 123]
[2]; read-out: Mtb MIC (ug/mL)
  MIC: > 400 µg/mL

## CCOP(=O)(CCCN(O)C(C)=O)OCC [GSJ21]
[2]
  Mtb MIC: >200 µg/mL

## CC(=O)N(O)CCCCP(=O)(O)O [GSJ54]
[2]; read-out: Mtb MIC (ug/mL)
  MIC: > 200 µg/mL
[1]; Mtb Dxr IC50 (ug/mL)
  IC50: 13.2 µM

## CCOP(=O)(CCCN(OCc1ccc(C(C)C)cc1)C(C)=O)OCC [GSJ70]
[2]; [10]
  MIC: 400 µg/mL (≈ 1040 µM)
[2]; [11]
  MIC: 200 µg/mL (≈ 519 µM)

## CCOP(=O)(CCCN(OCC1CCCCC1)C(C)=O)OCC [GSJ71]
[2]; [10]
  MIC: ≥ 400 µg/mL
[2]; [11]
  MIC: 200 to 400 µg/mL (≈ 572 to 1140 µM)

## CCOP(=O)(CCCN(OCc1ccc(-c2ccccc2)cc1)C(C)=O)OCC [GSJ72]
[2]; [10]
  MIC: 200 µg/mL (≈ 477 µM)
[2]; [11]
  MIC: 100 µg/mL (≈ 238 µM)

## CCOP(=O)(CCCN(OCc1ccc2ccccc2c1)C(C)=O)OCC [GSJ73]
[2]; [10]
  MIC: 200 µg/mL (≈ 508 µM)
[2]; [11]
  MIC: 100 µg/mL (≈ 254 µM)

## CC(=O)N(CCCP(=O)(O)O)OCc1ccc(-c2ccccc2)cc1 [GSJ74]
[2]; read-out: Mtb MIC (ug/mL)
  MIC: 25 to 50 µg/mL (≈ 68.8 to 138 µM)
[1]; Mtb Dxr IC50 (ug/mL)
  IC50: 68.6 µM

## CC(=O)N(CCCP(=O)(O)O)OCC1CCCCC1 [GSJ75]
[2]; read-out: Mtb MIC (ug/mL)
  MIC: > 200 µg/mL
[1]; Mtb Dxr IC50 (ug/mL)
  IC50: 212 µM

## CC(=O)N(CCCP(=O)(O)O)OCc1ccc(C(C)C)cc1 [GSJ76]
[2]; [10]
  MIC: 200 µg/mL (≈ 607 µM)
[2]; [11]
  MIC: 25 µg/mL (≈ 75.9 µM)
[1]; Mtb Dxr IC50 (ug/mL)
  IC50: 54 µM

## CC(=O)N(CCCP(=O)(O)O)OCc1ccc2ccccc2c1 [GSJ77]
[2]; read-out: Mtb MIC (ug/mL)
  MIC: ≥ 200 µg/mL
[1]; Mtb Dxr IC50 (ug/mL)
  IC50: 47.7 µM

## CC(=O)N(CCCP(=O)(O)O)OCCc1ccccc1 [GSJ78]
[2]; read-out: Mtb MIC (ug/mL)
  MIC: > 200 µg/mL
[1]; Mtb Dxr IC50 (ug/mL)
  IC50: 103 µM

## CCOP(=O)(CCCN(OCCc1ccc(O)cc1)C(C)=O)OCC [GSJ80]
[2]; read-out: Mtb MIC (ug/mL)
  MIC: 200 to 400 µg/mL (≈ 536 to 1070 µM)

## CCOP(=O)(CCCN(OCCc1ccc(C)cc1)C(C)=O)OCC [GSJ82]
[2]; [10]
  MIC: ≥ 400 µg/mL

## CC(=O)N(CCCP(=O)(OCOC(=O)C(C)(C)C)OCOC(=O)C(C)(C)C)OCCCCc1ccccc1 [GSJ89]
[2]; [10]
  MIC: 12.5 µg/mL (≈ 22.4 µM)
[2]; [11]
  MIC: 6.25 to 12.5 µg/mL (≈ 11.2 to 22.4 µM)

## CC(=O)N(CCCP(=O)(OCOC(=O)c1ccccc1)OCOC(=O)c1ccccc1)OCCCCc1ccccc1 [GSJ92]
[2]; [10]
  MIC: 25 µg/mL (≈ 41.8 µM)

## CC(=O)N(CCCP(=O)(OCOC(=O)C(C)(C)C)OCOC(=O)C(C)(C)C)OCc1ccc(C(C)C)cc1 [GSJ96]
[2]; read-out: Mtb MIC (ug/mL)
  MIC: 12.5 µg/mL (≈ 22.4 µM)

## CC(=O)N(CCCP(=O)(OCOC(=O)C(C)(C)C)OCOC(=O)C(C)(C)C)OCc1ccc(-c2ccccc2)cc1 [GSJ97]
[2]; read-out: Mtb MIC (ug/mL)
  MIC: 12.5 µg/mL (≈ 21.1 µM)

## CCOP(=O)(CCCN(OCc1cccc(-c2ccccc2)c1)C(C)=O)OCC [GSJ100]
[2]; read-out: Mtb MIC (ug/mL)
  MIC: 100 µg/mL (≈ 238 µM)

## CCOP(=O)(CCCN(OCc1ccccc1-c1ccccc1)C(C)=O)OCC [GSJ101]
[2]; read-out: Mtb MIC (ug/mL)
  MIC: 200 to 400 µg/mL (≈ 477 to 954 µM)

## CCOP(=O)(CCCN(OCc1ccc(Cl)c(Cl)c1)C(C)=O)OCC [GSJ102]
[2]; read-out: Mtb MIC (ug/mL)
  MIC: 200 µg/mL (≈ 485 µM)

## CCOP(=O)(CCCN(OCc1cccc(OC(F)(F)F)c1)C(C)=O)OCC [GSJ109]
[2]; read-out: Mtb MIC (ug/mL)
  MIC: 400 µg/mL (≈ 936 µM)

## CCOP(=O)(CCCN(OCc1ccc(OC(F)(F)F)cc1)C(C)=O)OCC [GSJ110]
[2]; read-out: Mtb MIC (ug/mL)
  MIC: 400 µg/mL (≈ 936 µM)

## CCOP(=O)(CCCN(OCc1cc(OC)cc(OC)c1)C(C)=O)OCC [GSJ111]
[2]; read-out: Mtb MIC (ug/mL)
  MIC: > 400 µg/mL

## CCOP(=O)(CCCN(OCc1ccc(-c2ccccc2C(=O)OC)cc1)C(C)=O)OCC [GSJ112]
[2]; read-out: Mtb MIC (ug/mL)
  MIC: 400 µg/mL (≈ 838 µM)

## CCOP(=O)(CCCN(OCc1ccc(Br)cc1)C(C)=O)OCC [GSJ113]
[2]; read-out: Mtb MIC (ug/mL)
  MIC: 400 µg/mL (≈ 947 µM)

## CCOP(=O)(CCCN(OCc1ccc(C)cc1)C(C)=O)OCC [GSJ114]
[2]; read-out: Mtb MIC (ug/mL)
  MIC: > 400 µg/mL

## CCOP(=O)(CCCN(OCc1cccc(Br)c1)C(C)=O)OCC [GSJ115]
[2]; read-out: Mtb MIC (ug/mL)
  MIC: 400 µg/mL (≈ 947 µM)

## CCOP(=O)(CCCN(OCc1cccc2ccccc12)C(C)=O)OCC [GSJ116]
[2]; read-out: Mtb MIC (ug/mL)
  MIC: 400 µg/mL (≈ 1020 µM)

## O=C(CCc1ccccc1)N(O)CCCP(=O)(O)O [GSJ 51]
[2]; read-out: Mtb MIC (ug/mL)
  MIC: > 200 µg/mL
[1]; IC50 (uM)
  IC50: 2.72 µM
[1]; IC50 (ug/ml)
  IC50: 2.92 µM
[1]; Mtb Dxr IC50 (ug/mL)
  IC50: 2.92 µM

## O=C(CCCc1ccccc1)N(O)CCCP(=O)(O)O [GSJ 52]
[2]; read-out: Mtb MIC (ug/mL)
  MIC: > 200 µg/mL
[1]; IC50 (uM)
  IC50: 3.12 µM
[1]; IC50 (ug/ml)
  IC50: 3.35 µM
[1]; Mtb Dxr IC50 (ug/mL)
  IC50: 3.35 µM

## O=C(Cc1ccccc1)N(O)CCCP(=O)(O)O [GSJ 55]
[2]; read-out: Mtb MIC (ug/mL)
  MIC: > 200 µg/mL
[1]; IC50 (uM)
  IC50: 7.49 µM
[1]; IC50 (ug/ml)
  IC50: 8.09 µM
[1]; Mtb Dxr IC50 (ug/mL)
  IC50: 8.09 µM

## O=C(NCCCP(=O)(O)O)c1ccc2ccccc2c1 [GSJ 56]
[2]; read-out: Mtb MIC (ug/mL)
  MIC: > 200 µg/mL
[1]; read-out: Mtb Dxr, value in parentheses (percent enzyme activity remaining)
  remaining activity at 100 µg/mL: 90%
[1]; read-out: percent enzyme activity remaining at 100 ug/ml compound
  remaining activity at 100 µg/mL: 90%

## CC(=O)N(CCCP(=O)(O)O)OC(C)c1ccccc1 (stereo not shown) [GSJ 63]
[2]; read-out: Mtb MIC (ug/mL)
  MIC: > 200 µg/mL
[1]; IC50 (uM)
  IC50: 161 µM
[1]; IC50 (ug/ml)
  IC50: 173 µM
[1]; Mtb Dxr IC50 (ug/mL)
  IC50: 173 µM

## NNC(=O)c1ccncc1 [Isoniazid, reference compound]
[2]; read-out: MIC 7H9 (μg/mL)
  MIC: 0.04 µg/mL (≈ 0.292 µM)
[2]; read-out: MIC GAST/Fe (μg/mL)
  MIC: 0.02 µg/mL (≈ 0.146 µM)

Source: patent publication US9593136B2 (priority 2011, dated 2017)
